Data reported in article PMC12951562, “SH2scan: Mapping SH2 Domain-Ligand Binding Selectivity for Inhibitors and Degraders” (Journal of Medicinal Chemistry, 2026).
Like-named read-outs stand apart in the source and are kept apart here.

How the values were obtained:
Assay type in all cases: binding
[1] = target: T1, SH2D1A (Homo sapiens, UniProt O60880); assay: biochemical; conditions: read-out: percent of DMSO vehicle control
T1 construct: made in house; host or cells: HEK293 (transient transfection), unpurified extract
T1 sequence (O60880 1-128): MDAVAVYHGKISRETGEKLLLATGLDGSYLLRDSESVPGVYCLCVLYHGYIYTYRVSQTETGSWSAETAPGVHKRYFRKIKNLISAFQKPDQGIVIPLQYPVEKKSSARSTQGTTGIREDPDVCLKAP

[2] = target: T2, STAT5B(N642H) (Homo sapiens, UniProt P51692, N642H); assay: biochemical; conditions: for remaining activity at 10 µM: primary screen; for remaining activity at 10 µM / percent of DMSO vehicle control at 10 µM: read-out: percent of DMSO vehicle control
T2 construct: made in house; host or cells: HEK293 (transient transfection), unpurified extract
T2 sequence (P51692 1-787 N642H): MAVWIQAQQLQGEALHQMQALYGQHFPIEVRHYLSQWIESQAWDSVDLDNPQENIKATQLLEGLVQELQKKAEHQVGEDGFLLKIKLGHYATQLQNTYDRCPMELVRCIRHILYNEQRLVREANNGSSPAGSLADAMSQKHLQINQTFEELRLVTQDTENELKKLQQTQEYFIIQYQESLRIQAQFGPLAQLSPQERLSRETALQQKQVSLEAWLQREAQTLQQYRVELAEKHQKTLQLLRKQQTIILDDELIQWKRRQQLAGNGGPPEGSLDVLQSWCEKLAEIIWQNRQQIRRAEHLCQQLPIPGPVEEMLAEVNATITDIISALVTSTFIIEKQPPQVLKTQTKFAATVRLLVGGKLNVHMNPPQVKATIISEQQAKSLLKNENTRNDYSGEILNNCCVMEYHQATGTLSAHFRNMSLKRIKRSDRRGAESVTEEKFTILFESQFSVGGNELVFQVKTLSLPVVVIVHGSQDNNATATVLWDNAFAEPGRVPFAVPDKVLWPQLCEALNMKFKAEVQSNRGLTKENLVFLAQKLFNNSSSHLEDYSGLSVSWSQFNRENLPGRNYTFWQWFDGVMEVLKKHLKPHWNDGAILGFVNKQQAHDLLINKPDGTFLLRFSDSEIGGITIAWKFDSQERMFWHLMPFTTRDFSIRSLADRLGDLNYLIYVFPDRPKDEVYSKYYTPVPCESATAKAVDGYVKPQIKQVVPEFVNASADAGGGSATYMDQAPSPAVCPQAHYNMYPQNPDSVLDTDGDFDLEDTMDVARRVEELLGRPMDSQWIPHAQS

[3] = target: T3, SYK(SH2dom1.dom2.) (Homo sapiens, UniProt P43405); conditions: primary screen, 10 μM
T3 construct: the SH2 domains for these targets are expressed in tandem constructs; made in house; host or cells: HEK293 (transient transfection), unpurified extract

[4] = target: T4, CISH (Homo sapiens, UniProt Q9NSE2); assay: biochemical; conditions: for Kd: dose-response, read-out: KD; for remaining activity at 10 µM: read-out: percent of DMSO vehicle control
T4 construct: the DNA-tagged SH2 domain concentrations used in this study were <0.1 nM; made in house; host or cells: HEK293 (transient transfection; unpurified extract)
T4 sequence (Q9NSE2 82-163 limits assumed): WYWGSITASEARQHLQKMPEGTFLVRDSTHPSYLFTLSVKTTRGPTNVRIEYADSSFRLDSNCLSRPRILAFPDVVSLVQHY

[5] = target: T5, STAT3(S614R)-nonphosphorylated (Homo sapiens, UniProt P40763, S614R); assay: biochemical; conditions: for remaining activity at 10 µM: primary screen; for remaining activity at 10 µM / percent of DMSO vehicle control at 10 µM: read-out: percent of DMSO vehicle control
T5 construct: made in house; host or cells: HEK293 (transient transfection), unpurified extract, dephosphorylated by endogenous phosphatases

[6] = target: T6, STAT3(D661Y)-nonphosphorylated (Homo sapiens, UniProt P40763, D661Y); assay: biochemical; conditions: for remaining activity at 10 µM: primary screen; for remaining activity at 10 µM / percent of DMSO vehicle control at 10 µM: read-out: percent of DMSO vehicle control
T6 construct: made in house; host or cells: HEK293 (transient transfection), unpurified extract, dephosphorylated by endogenous phosphatases

[7] = target: T7, PTPN11(SH2dom.C-term.) (Homo sapiens, UniProt Q06124); assay: biochemical; conditions: for percent of DMSO vehicle control: primary screen, 10 μM
T7 construct: SH2dom.C-term. denotes SH2 domain closest to C-terminus of protein; made in house; host or cells: HEK293 (transient transfection, unpurified extract)
T7 sequence (Q06124 112-216 limits assumed): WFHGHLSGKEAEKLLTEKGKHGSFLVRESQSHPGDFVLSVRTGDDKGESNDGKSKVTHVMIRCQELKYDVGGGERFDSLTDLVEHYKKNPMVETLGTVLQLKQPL

[8] = target: T8, PIK3R1(SH2dom.N-term.) (Homo sapiens, UniProt P27986); assay: biochemical; conditions: read-out: percent of DMSO vehicle control
T8 construct: SH2dom.N-term. denotes SH2 domain closest to N-terminus of protein; made in house; host or cells: HEK293 (transient transfection, unpurified extract)

[9] = target: T9, HSH2D (Homo sapiens, UniProt Q96JZ2); assay: biochemical; conditions: for remaining activity at 10 µM: primary screen; for remaining activity at 10 µM / percent of DMSO vehicle control at 10 µM: read-out: percent of DMSO vehicle control
T9 construct: the DNA-tagged SH2 domain concentrations used in this study were <0.1 nM; made in house; host or cells: HEK293 (transient transfection, unpurified extract)
T9 sequence (Q96JZ2 34-125 limits assumed): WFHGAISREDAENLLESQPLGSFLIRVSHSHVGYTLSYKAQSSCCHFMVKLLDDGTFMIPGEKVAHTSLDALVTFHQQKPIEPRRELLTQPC

[10] = target: T10, STAT4 (Homo sapiens, UniProt Q14765); assay: biochemical; conditions: for percent of DMSO vehicle control: primary screen, 10 μM
T10 construct: made in house; host or cells: HEK293 (transient transfection), unpurified extract
T10 sequence (Q14765 1-748): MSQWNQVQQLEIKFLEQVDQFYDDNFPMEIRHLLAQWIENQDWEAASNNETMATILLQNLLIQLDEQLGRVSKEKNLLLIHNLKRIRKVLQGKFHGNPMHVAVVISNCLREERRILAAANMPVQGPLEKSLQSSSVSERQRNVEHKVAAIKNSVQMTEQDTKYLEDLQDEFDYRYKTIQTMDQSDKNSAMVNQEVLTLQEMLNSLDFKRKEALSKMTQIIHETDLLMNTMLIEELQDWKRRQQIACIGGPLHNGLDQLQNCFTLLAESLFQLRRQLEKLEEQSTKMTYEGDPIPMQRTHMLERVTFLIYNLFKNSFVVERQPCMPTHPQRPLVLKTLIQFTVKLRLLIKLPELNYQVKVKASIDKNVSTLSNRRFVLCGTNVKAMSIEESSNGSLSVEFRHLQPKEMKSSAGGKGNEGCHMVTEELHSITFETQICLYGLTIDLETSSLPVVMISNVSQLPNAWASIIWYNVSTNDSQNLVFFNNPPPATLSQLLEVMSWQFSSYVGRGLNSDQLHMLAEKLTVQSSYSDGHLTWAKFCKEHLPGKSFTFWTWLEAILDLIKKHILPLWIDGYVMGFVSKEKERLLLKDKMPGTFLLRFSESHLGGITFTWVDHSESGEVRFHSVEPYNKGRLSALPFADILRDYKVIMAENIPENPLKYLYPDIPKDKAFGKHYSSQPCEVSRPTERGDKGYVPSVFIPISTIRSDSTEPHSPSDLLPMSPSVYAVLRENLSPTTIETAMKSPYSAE

[11] = target: T11, BRK (Homo sapiens, UniProt Q13882); assay: biochemical; conditions: for remaining activity at 10 µM: read-out: percent of DMSO vehicle control
T11 construct: the DNA-tagged SH2 domain concentrations used in this study were <0.1 nM; made in house; host or cells: HEK293 (transient transfection; unpurified extract)

| SMILES | remaining activity at 10 µM ([1]; primary screen, 10 μM) | remaining activity at 10 µM [2] | percent of DMSO vehicle control [3] | Kd [4] | remaining activity at 10 µM ([4]; primary screen, 10 μM) | remaining activity at 10 µM [5] | remaining activity at 10 µM [6] | percent of DMSO vehicle control [7] | remaining activity at 10 µM ([8]; primary screen, 10 μM) | remaining activity at 10 µM [9] | percent of DMSO vehicle control [10] | remaining activity at 10 µM ([11]; primary screen, 10 μM) | remaining activity at 10 µM [1] | percent of DMSO vehicle control at 10 µM [2] | remaining activity at 10 µM [4] | percent of DMSO vehicle control at 10 µM [5] | percent of DMSO vehicle control at 10 µM [6] | remaining activity at 10 µM [8] | percent of DMSO vehicle control at 10 µM [9] | remaining activity at 10 µM [11] | other results |
| --- | --- | --- | --- | --- | --- | --- | --- | --- | --- | --- | --- | --- | --- | --- | --- | --- | --- | --- | --- | --- | --- |
| O=C(CCl)Nc1cccc(CNC(=O)[C@H](Cc2ccc(OP(=O)(O)O)cc2)NC(=O)Cc2ccc(F)cc2)c1 [MN551] | 77.9 ± 2.2% | 76.9% | 61.9±4.0% | 46 nM | 3.2 ± 4.3% | 95.7 ± 8.1% | 171% | 125.6% | 99.8 ± 1.6% | 3 ± 0.2% | 22±0.8% | 4.7 ± 0.7% |  |  |  |  |  |  |  |  | Kd ([9]; dose-response, read-out: KD): 8700 nM; KD ([10]; dose-response): No Hit |
| NC(=O)CC[C@H](NC(=O)[C@@H]1CC[C@@H]2CCN(C(=O)CCCCCC#Cc3cccc4c3CN(C3CCC(=O)NC3=O)C4=O)C[C@H](NC(=O)c3cc4cc(C(F)(F)P(=O)(O)O)ccc4[nH]3)C(=O)N21)C(=O)NC(c1ccccc1)c1ccccc1 (stereo partly drawn) [SD-36] |  |  | 104.6% |  |  |  |  | 104.4±9.8% |  |  | 1.1±0.2% |  | 354% | 3.2 ± 0.8% | 42.8 ± 5.7% | 1.6% | 0% | 124% | 72.7 ± 14.5% | 76.9 ± 3.5% | Kd ([2]; dose-response): 2400 ± 740 nM; Kd ([5]; dose-response): 9.7 ± 4.1 nM; Kd ([6]; dose-response): 24 ± 12 nM; Kd ([10]; dose-response): 120 ± 110 nM |
| CC(=O)N1CC[C@H]2CC[C@@H](C(=O)N[C@@H](CCC(N)=O)C(=O)NC(c3ccccc3)c3ccccc3)N2C(=O)[C@@H](NC(=O)c2cc3cc(C(F)(F)P(=O)(O)O)ccc3[nH]2)C1 [SI-109] |  |  | 121.8% |  |  |  |  | 136.9% |  |  | 7.3±0.1% |  | 87.6% | 123% | 102% | 0.1% | 0.6 ± 0.2% | 134% | 154% | 124% | Kd [2]: 19000 ± 8500 nM; Kd [5]: 5 ± 0.56 nM; Kd [6]: 21 ± 6.8 nM; Kd [10]: 240 ± 106 nM |
| C/C(=C\C(=O)N[C@H](C(=O)N1CCC[C@H]1C(=O)N(c1ccccc1)c1ccc(I)cc1)C(C)(C)C)c1ccc(OP(=O)(O)O)cc1 [STAT6-IN-1] | 68.7 ± 3.5% | 0% | 61.2±11.0% | 3600 ± 640 nM | 1.6 ± 2.3% | 0% | 0% | 2.1±0.9% | 44.8 ± 5% | 14.6 ± 0.1% | 0.0±0.0% | 3 ± 0.4% |  |  |  |  |  |  |  |  | Kd ([2]; dose-response, read-out: KD): 5.6 ± 2.1 nM; Kd ([5]; dose-response, read-out: KD): 88 ± 31 nM; Kd ([6]; dose-response, read-out: KD): 1000 ± 800 nM; Kd ([7]; dose-response, read-out: KD): 1060 ± 350 nM; KD ([9]; dose-response): No Hit; Kd ([10]; dose-response, read-out: KD): 220 ± 67 nM; KD ([11]; dose-response): No Hit |
